Results taken from ChEMBL document CHEMBL5385848, “Discovery of novel hydroxyamidine based indoleamine 2,3-dioxygenase 1 (IDO1) and thioredoxin reductase 1 (TrxR1) dual inhibitors” (Eur J Med Chem, 2023).
Calls of active or inactive are those of the source. The rule behind the calls is not given here.

Tests used:
[1] = molecular target: Thioredoxin reductase 2, mitochondrial (Homo sapiens, UniProt Q9NNW7); experiment: Inhibition of TrxR2 (unknown origin) incubated for 1 hr in presence of NADPH by microplate reader analysis
[2] = test system: HCT-116; experiment: Cytotoxicity against human HCT-116 cells incubated for 24 hrs in presence of NAC CCK-8 assay; format: functional, cell-based; settings: HCT-116, 24 h
[3] = test system: HCT-116; experiment: Antitumor activity against human HCT-116 cells xenografted in athymic nude BALB/c mouse assessed as reduction in mitosis of tumor cells at 15 to 60 mg/kg, ig administered daily for 28 days and measured every 4 days; format: functional, organism-based; settings: dose 15-60 mg/kg, time 28.0 day
[4] = Cytotoxicity against human HeLa cells incubated for 48 hrs by CCK-8 assay; format: toxicity, cell-based
[5] = test system: HCT-116; experiment: Induction of apoptosis in human HCT-116 cells assessed as caspase-7 activation incubated for 24 hrs; format: functional, cell-based; settings: dose 2.5-10 µM
[6] = test system: HeLa; experiment: Induction of ROS generation in human HeLa cells at 10 uM incubated for 4 hrs by DCFH-DA staining based flow cytometry analysis; format: functional, cell-based
[7] = molecular target: Indoleamine 2,3-dioxygenase 1 (Mus musculus) (UniProt P28776); experiment: In vivo inhibition of IDO1 in C57BL/6 mouse assessed as increase in plasma Trp level at 60 mg/kg, po administered once daily by LC-MS/MS analysis; format: functional, organism-based
[8] = test system: CT26; experiment: Antitumor activity against ig dosed mouse CT26 cells implanted in […] BALB/c mouse assessed as reduction in tumor volume administered daily for 28 days and measured every 4 days; format: functional, organism-based; settings: dose 15-60 mg/kg, time 28.0 day
[9] = Toxicity in athymic BALB/c mouse xenografted with human HCT-116 cells assessed as change in kidney morphology at 15 to 60 mg/kg, ig administered daily for 28 days and measured every 4 days; format: organism-based; settings: in vivo, po, 672 h, dose 15-60 mg/kg, time 28 day
[10] = molecular target: T1, Thioredoxin reductase 1, cytoplasmic (Homo sapiens, UniProt Q16881); experiment: Inhibition of TrxR1 in human HeLa cells incubated for 24 hrs; format: cell-based
T1 sequence (Q16881 whole entry): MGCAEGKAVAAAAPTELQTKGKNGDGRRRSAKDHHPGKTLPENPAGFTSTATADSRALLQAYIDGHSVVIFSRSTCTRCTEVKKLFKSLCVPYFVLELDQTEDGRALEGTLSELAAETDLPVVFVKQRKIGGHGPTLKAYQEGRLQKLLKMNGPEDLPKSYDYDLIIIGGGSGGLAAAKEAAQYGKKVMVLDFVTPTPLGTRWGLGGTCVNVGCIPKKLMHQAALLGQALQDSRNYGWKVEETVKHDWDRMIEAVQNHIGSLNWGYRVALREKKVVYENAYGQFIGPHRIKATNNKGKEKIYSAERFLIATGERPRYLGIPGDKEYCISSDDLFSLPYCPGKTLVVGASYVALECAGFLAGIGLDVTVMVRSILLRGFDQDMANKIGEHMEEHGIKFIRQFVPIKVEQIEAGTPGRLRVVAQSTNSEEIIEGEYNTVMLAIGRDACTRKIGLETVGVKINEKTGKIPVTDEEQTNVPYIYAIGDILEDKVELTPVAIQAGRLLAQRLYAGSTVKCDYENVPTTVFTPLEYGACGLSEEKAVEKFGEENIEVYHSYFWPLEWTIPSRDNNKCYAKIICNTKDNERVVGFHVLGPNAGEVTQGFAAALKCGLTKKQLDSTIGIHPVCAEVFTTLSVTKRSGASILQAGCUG

[11] = test system: HCT-116; experiment: Induction of ROS generation in human HCT-116 cells at 10 uM incubated for 4 hrs by DCFH-DA staining based flow cytometry analysis; format: functional, cell-based
[12] = test system: HeLa; experiment: Induction of ROS generation in human HeLa cells incubated for 4 hrs by DCFH-DA staining based flow cytometry analysis; format: functional, cell-based; settings: dose 2.5-10 µM
[13] = molecular target: Indoleamine 2,3-dioxygenase 1 (Mus musculus) (UniProt P28776); experiment: In vivo inhibition of IDO1 in C57BL/6 mouse assessed as reduction in plasma Kyn level at 60 mg/kg, po administered once daily by LC-MS/MS analysis; format: functional, organism-based
[14] = Toxicity in athymic BALB/c mouse xenografted with human HCT-116 cells assessed as change in liver morphology at 15 to 60 mg/kg, ig administered daily for 28 days and measured every 4 days; format: organism-based; settings: in vivo, po, 672 h, dose 15-60 mg/kg, time 28 day
[15] = test system: HeLa; experiment: Cytotoxicity against human HeLa cells incubated for 24 hrs CCK-8 assay; format: functional, cell-based
[16] = Cytotoxicity against human HCT-116 cells incubated for 48 hrs by CCK-8 assay; format: toxicity, cell-based
[17] = Toxicity in athymic nude BALB/c mouse assessed as weight gain at 15 to 60 mg/kg, ig administered daily for 28 days and measured every 4 days; format: organism-based; settings: in vivo, po, 672 h, dose 15-60 mg/kg, time 28 day
[18] = test system: HCT-116; experiment: Antiproliferative activity against human HCT-116 cells assessed as cell growth inhibition incubated for 48 hrs by CCK-8 assay; format: functional, cell-based; settings: HCT-116, 48 h
[19] = test system: HCT-116; experiment: Induction of apoptosis in human HCT-116 cells assessed as apoptotic rate at 2.5 uM pretreated with NAC incubated for 24 hrs by Annexin-V/PI staining based flow cytometry analysis (reference value: 9.8 +/- 1.59%); format: functional
[20] = test system: IDO1; experiment: Selectivity ratio of IC50 for cytotoxicity against human HeLa cells to EC50 for inhibition of IDO1 in human HeLa cells; format: cell-based; settings: read-out: Ratio IC50/EC50
[21] = test system: CT26; experiment: Antitumor activity against mouse CT26 cells implanted in athymic nude BALB/c mouse assessed as reduction in nTreg lymphocytes at 15 to 60 mg/kg, ig administered daily for 28 days and measured every 4 days by immunofluorescence analysis; format: functional, organism-based; settings: dose 15-60 mg/kg, time 28.0 day
[22] = test system: HeLa; experiment: Induction of cell cycle arrest in human HeLa cells assessed as G1/S phase arrest at 2.5 to 10 uM incubated for 24 hrs by PI staining based flow cytometry analysis; format: functional; settings: dose 2.5-10 µM
[23] = molecular target: Indoleamine 2,3-dioxygenase 1 (Homo sapiens, UniProt P14902); experiment: Inhibition of recombinant human IDO1 using L-Trp as substrate incubated for 1 hr
[24] = Toxicity in athymic BALB/c mouse xenografted with human HCT-116 cells assessed as change in lung morphology at 15 to 60 mg/kg, ig administered daily for 28 days and measured every 4 days; format: organism-based; settings: in vivo, po, 672 h, dose 15-60 mg/kg, time 28 day
[25] = test system: HCT-116; experiment: Cytotoxicity against TrxR1 knockdown human HCT-116 cells incubated for 24 hrs by CCK-8 assay (reference value: 3.08 +/- 0.55 uM); format: functional, cell-based; settings: HCT-116, 24 h
[26] = molecular target: T2, Indoleamine 2,3-dioxygenase 2 (Homo sapiens, UniProt Q6ZQW0); experiment: Inhibition of IDO2 (unknown origin) using D-Trp as substrate incubated for 1 hr
T2 sequence (Q6ZQW0 whole entry): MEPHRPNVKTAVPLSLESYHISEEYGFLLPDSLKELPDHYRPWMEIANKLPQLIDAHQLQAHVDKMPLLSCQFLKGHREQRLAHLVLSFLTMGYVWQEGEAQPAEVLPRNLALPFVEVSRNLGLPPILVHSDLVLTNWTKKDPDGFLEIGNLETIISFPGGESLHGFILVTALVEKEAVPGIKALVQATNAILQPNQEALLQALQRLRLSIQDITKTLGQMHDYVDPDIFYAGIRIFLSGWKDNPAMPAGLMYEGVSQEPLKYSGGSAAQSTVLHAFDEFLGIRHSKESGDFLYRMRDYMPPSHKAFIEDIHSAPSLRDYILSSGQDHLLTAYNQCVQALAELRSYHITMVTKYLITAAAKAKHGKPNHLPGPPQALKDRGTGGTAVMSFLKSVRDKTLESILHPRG

Sequence of Indoleamine 2,3-dioxygenase 1 (Mus musculus) (P28776 whole entry, looked up): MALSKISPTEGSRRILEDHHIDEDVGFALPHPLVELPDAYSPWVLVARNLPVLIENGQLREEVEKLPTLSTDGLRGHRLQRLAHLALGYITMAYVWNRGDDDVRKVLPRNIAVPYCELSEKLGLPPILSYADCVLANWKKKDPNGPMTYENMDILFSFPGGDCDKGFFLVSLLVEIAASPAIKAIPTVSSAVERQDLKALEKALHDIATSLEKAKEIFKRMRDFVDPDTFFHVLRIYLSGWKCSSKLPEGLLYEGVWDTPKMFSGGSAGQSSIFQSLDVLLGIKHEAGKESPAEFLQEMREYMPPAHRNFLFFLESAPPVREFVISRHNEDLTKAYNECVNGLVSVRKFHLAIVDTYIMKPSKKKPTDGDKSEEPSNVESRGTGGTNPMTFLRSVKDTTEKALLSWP
Sequence of Indoleamine 2,3-dioxygenase 1 (P14902 whole entry): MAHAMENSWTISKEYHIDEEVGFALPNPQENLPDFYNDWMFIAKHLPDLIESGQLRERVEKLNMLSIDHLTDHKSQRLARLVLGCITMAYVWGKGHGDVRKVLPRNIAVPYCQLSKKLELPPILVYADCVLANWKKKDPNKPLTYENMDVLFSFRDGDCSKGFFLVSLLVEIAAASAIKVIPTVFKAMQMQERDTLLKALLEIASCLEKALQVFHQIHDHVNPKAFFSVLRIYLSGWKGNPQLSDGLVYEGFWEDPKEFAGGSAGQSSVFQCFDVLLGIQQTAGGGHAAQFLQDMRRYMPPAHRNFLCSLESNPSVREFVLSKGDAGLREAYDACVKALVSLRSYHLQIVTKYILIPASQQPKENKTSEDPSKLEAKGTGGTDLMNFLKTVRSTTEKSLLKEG
Sequence of Thioredoxin reductase 2, mitochondrial (Q9NNW7 whole entry): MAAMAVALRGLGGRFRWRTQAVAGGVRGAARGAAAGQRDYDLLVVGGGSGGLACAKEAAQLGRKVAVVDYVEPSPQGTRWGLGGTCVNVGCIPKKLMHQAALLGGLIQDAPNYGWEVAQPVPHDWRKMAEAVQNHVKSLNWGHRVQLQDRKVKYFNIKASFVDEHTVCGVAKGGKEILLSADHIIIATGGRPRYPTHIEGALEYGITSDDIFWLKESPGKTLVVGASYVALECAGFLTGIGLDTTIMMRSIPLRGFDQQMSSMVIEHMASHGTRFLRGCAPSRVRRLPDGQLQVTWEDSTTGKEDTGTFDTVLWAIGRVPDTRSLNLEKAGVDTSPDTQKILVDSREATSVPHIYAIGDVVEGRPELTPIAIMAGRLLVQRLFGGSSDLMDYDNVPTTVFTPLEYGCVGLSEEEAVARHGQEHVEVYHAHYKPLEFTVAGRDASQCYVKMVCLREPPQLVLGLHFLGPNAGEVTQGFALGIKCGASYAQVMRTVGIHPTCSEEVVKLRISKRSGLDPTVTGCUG

**Q.** Which IC50 [1] does the source give for O=C(Cc1ccc(O)cc1)Nc1nnc(CCCNc2nonc2/C(=N\O)Nc2ccc(F)c(Br)c2)s1 here?
**A.** > 500 µM

**Q.** What about the IC50 [2] of the same compound?
**A.** 60.8 µM

**Q.** What about the Activity [3] of the same compound?
**A.** Active

**Q.** What about the IC50 at 48 h [4] of the same compound?
**A.** 10.2 µM

**Q.** What about the Activity [5] of the same compound?
**A.** Dose-Dependent Effect

**Q.** And the Activity [6]?
**A.** Active

**Q.** And the Activity [7]?
**A.** Active

**Q.** And the Activity [8]?
**A.** Dose-Dependent Effect

**Q.** And the Activity [9]?
**A.** Non-Toxic

**Q.** What about the EC50 [10] of the same compound?
**A.** 13.1 µM

**Q.** What about the Activity [11] of the same compound?
**A.** Active

**Q.** What about the Activity [12] of the same compound?
**A.** Dose-Dependent Effect

**Q.** And the Activity [13]?
**A.** Active

**Q.** And the Activity [14]?
**A.** Non-Toxic

**Q.** And the IC50 [15]?
**A.** 16.1 µM

**Q.** What about the IC50 at 48 h [16] of the same compound?
**A.** 3.44 µM

**Q.** What about the Activity [17] of the same compound?
**A.** Toxic

**Q.** And the IC50 [18]?
**A.** 3.44 µM

**Q.** And the Activity [19]?
**A.** 10.37%

**Q.** And the selectivity ratio [20]?
**A.** 224

**Q.** And the Activity [21]?
**A.** Active

**Q.** And the Activity [22]?
**A.** Active

**Q.** What about the IC50 [23] of the same compound?
**A.** 0.05 µM

**Q.** And the Activity [24]?
**A.** Non-Toxic

**Q.** And the IC50 [25]?
**A.** 1.52 µM

**Q.** What about the IC50 [26] of the same compound?
**A.** 22.2 µM
